Data: paper PMC3034309 (European journal of pharmacology, 2011)

Columns and labels:
cannabinoid CB1 receptor [1] = target: T1, cannabinoid CB1 receptor (Rattus norvegicus, UniProt P20272); experiment: [3H]CP55,940 binding, cannabinoid CB1 receptor, rat cerebellar membranes; conditions: read-out: Ki (nM) CB1, 1 nM [3H]CP55,940, mean ± S.E.M.
[2] = target: mouse cannabinoid CB2 receptors (Mus musculus, UniProt P47936); experiment: [3H]CP55,940 binding, cannabinoid CB2 receptor, CB2-CHO cell membranes; conditions: for Ki: read-out: Ki (nM) CB2, CB2-CHO cell membranes, 1 nM [3H]CP55,940, mean ± S.E.M.; for better affinity for cannabinoid CB2 receptors than for CB1: ratio of CB1 to CB2 affinity
mouse cannabinoid CB2 receptors, sequence (P47936 whole entry): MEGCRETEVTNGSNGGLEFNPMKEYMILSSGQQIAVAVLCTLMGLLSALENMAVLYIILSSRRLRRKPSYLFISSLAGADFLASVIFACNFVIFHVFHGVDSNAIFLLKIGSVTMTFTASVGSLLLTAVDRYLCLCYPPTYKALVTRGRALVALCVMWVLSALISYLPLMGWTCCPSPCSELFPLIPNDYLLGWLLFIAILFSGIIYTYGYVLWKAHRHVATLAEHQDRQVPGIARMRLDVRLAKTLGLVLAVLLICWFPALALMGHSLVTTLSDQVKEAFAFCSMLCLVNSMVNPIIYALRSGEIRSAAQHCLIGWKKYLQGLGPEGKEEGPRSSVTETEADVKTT

ICR mice [3] = experiment: Rectal temperature; conditions: i.v., 95% confidence limits in parentheses
ICR mice [4] = experiment: Tail flick antinociception; conditions: for ED50 TF (tail flick antinociception): mice, i.v., 95% confidence limits in parentheses
ICR mice [5] = experiment: Mouse in vivo screening test battery as a whole, agonist tests
ICR mice [6] = experiment: Suppression of spontaneous activity; conditions: i.v.; for ED50 SA (suppression of spontaneous activity): 95% confidence limits in parentheses
cannabinoid CB1 receptor [7] = target: T1, cannabinoid CB1 receptor; experiment: Agonist-stimulated [35S]GTPγS binding in rat cerebellar membranes; format: biochemical
[8] = test system: mouse isolated vas deferens; experiment: Mouse vas deferens procedure; conditions: for dextral shift of WIN 55,212-2 log concentration response curve: 95% confidence limits in parentheses; for mean change in twitch height: compound alone
ICR mice [9] = experiment: Mouse feeding experiment; format: in vivo; conditions: mice food deprived for 24 hr, injected i.p. 30 min before 1 h session
ICR mice [10] = experiment: Locomotor trials associated with the feeding experiment; format: in vivo, mouse; conditions: 10 and 30 mg/kg doses, i.p., 30 min before 10-min test
C57/Bl6J mice = experiment: Δ9-tetrahydrocannabinol drug discrimination in mice; format: in vivo, mouse; conditions: mice trained to discriminate 5.6 mg/kg Δ9-tetrahydrocannabinol from vehicle, s.c.
ICR mice [11] = experiment: Antagonist tests in the mouse in vivo test battery
[12] = target: human cannabinoid CB1 receptors (Homo sapiens, UniProt P21554); experiment: Inhibition of forskolin-stimulated cyclic AMP production in CHO cells; format: cell-based; conditions: read-out: Emax, inhibition of forskolin-induced stimulation of cyclic AMP
human cannabinoid CB1 receptors, sequence (P21554 whole entry): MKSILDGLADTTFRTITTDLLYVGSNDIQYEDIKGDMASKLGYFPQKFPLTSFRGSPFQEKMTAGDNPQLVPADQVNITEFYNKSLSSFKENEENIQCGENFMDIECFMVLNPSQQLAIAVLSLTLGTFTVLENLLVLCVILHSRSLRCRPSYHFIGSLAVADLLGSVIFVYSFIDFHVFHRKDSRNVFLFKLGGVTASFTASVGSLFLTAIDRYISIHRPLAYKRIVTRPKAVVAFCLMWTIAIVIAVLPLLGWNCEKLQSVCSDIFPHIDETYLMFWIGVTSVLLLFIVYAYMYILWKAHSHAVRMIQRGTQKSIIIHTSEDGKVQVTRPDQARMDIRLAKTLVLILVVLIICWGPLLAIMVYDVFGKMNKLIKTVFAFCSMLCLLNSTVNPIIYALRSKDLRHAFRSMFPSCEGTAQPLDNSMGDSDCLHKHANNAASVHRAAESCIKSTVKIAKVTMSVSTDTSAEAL

T1 sequence (P20272 whole entry): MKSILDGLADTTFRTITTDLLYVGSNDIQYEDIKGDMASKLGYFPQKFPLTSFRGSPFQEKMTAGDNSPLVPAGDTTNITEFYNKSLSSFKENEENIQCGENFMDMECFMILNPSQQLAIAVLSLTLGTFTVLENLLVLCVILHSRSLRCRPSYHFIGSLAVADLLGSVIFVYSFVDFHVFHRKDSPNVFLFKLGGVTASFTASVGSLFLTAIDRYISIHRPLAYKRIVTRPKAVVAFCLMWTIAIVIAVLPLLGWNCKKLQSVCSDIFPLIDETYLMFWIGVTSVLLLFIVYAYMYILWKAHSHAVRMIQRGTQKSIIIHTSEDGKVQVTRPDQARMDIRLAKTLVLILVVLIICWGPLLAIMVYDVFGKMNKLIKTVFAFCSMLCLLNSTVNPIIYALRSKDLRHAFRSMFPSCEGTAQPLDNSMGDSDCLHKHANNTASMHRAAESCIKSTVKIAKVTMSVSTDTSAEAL

## CCCCS(=O)(=O)NCCCC#CCc1cc(O)c2c(c1)OC(C)(C)C1CC=C(C)CC21 (centres unmarked) [O-1993]
Cannabinoid CB1 receptor [1]
  Ki: 70 ± 10 nM
[2]
  Ki: 86 ± 7 nM
ICR mice [3]
  ED50 RT (rectal temperature): 12 (9-15) mg/kg
ICR mice [4]
  ED50 TF (tail flick antinociception): 14 (7-27) mg/kg
ICR mice [5]; across the three in vivo tests (SA, TF, RT)
  decrease of in vivo potencies as compared to O-1991: 4- to 14 fold
ICR mice [6]
  ED50 SA (suppression of spontaneous activity): 8 (3-16) mg/kg

## CC1=CC[C@@H]2[C@@H](C1)c1c(O)cc(CC#CCCCNS(C)(=O)=O)cc1OC2(C)C [O-2050]
Cannabinoid CB1 receptor [1]
  Ki: 2.5 ± 0.4 nM
[2]
  better affinity for cannabinoid CB2 receptors than for CB1: 12 fold
  Ki: 0.2 ± 0.1 nM
Cannabinoid CB1 receptor [7]; compound alone, rat cerebellar membranes
  maximum stimulation of [35S]GTPγS binding: 11 ± 3%
Cannabinoid CB1 receptor [7]; in presence of 1000 nM CP55,940
  stimulation by CP 55,940 that was not blocked: 11 ± 6%
[8]; 1 nM O-2050
  dextral shift of WIN 55,212-2 log concentration response curve: 2.8 (1.7 - 4.4)
[8]; 10 nM O-2050
  dextral shift of WIN 55,212-2 log concentration response curve: 7.5 (4.1 - 13)
[8]; 31.62 nM O-2050
  dextral shift of WIN 55,212-2 log concentration response curve: 15.0 (9.9 - 21.9)
[8]; 100 nM O-2050
  dextral shift of WIN 55,212-2 log concentration response curve: 103.9 (60.0 - 180.7)
[8]; 30 min after 1 nM
  mean change in twitch height: 6.03±6.21%
[8]; 30 min after 10 nM
  mean change in twitch height: −0.45±5.9%
[8]; 30 min after 31.62 nM
  mean change in twitch height: 3.39±9.4%
[8]; 30 min after 100 nM
  mean change in twitch height: 3.8±8.1%
[8]; 30 min after 1000 nM
  mean change in twitch height: 6.19±16.4%
[8]; interaction with WIN 55,212-2
  Schild plot slope: 0.83±0.18
[8]; read-out: mean KB value, antagonism of WIN 55,212-2
  Kb: 1 ± 0.1 nM
ICR mice [9]
  food intake: significant and dose-dependent decreases in food intake
ICR mice [10]
  locomotor activity: significant locomotor stimulation
C57/Bl6J mice
  Δ9-tetrahydrocannabinol-like discriminative stimulus effects: produced discriminative stimulus effects that were similar to those of Δ^9-tetrahydrocannabinol
ICR mice [11]; 30 mg/kg injected 24 hr prior to 3 mg/kg Δ9-tetrahydrocannabinol, data not shown
  delayed antagonist effects: did not have delayed antagonist effects
ICR mice [11]; doses of up to 3 and 10 mg/kg i.v., vs 1 mg/kg WIN 55,212-2, data not shown
  antagonism of in vivo effects of WIN 55,212-2: did not antagonize
ICR mice [11]; doses up to 30 mg/kg i.v., vs 3 mg/kg Δ9-tetrahydrocannabinol i.v.
  antagonism of in vivo pharmacological effects of Δ9-tetrahydrocannabinol: did not antagonize
ICR mice [4]; 10 μg i.c.v., with dimethyl sulfoxide i.v.
  increase in antinociception as compared to vehicle: 2 fold
ICR mice [5]; mice, i.v., up to 30 mg/kg
  activity in the battery of three in vivo tests: not active in any of the three in vivo tests
ICR mice [6]; 30 mg/kg (highest dose)
  SA: percent effect at the highest dose: 69% @ 30

## CCS(=O)(=O)NCCCC#CCc1cc(O)c2c(c1)OC(C)(C)[C@@H]1CC=C(C)C[C@@H]21 [O-1991]
Cannabinoid CB1 receptor [1]
  Ki: 30 ± 13 nM
[2]
  better affinity for cannabinoid CB2 receptors than for CB1: 21 fold
  Ki: 1.4 ± 0.2 nM
ICR mice [3]
  ED50 RT (rectal temperature): 0.8 (0.4-1.6) mg/kg
ICR mice [4]
  ED50 TF (tail flick antinociception): 0.9 (0.6-1.4) mg/kg
ICR mice [6]
  ED50 SA (suppression of spontaneous activity): 2 (1-3) mg/kg

## CCCCCCC(C)(C)c1ccc([C@@H]2C[C@H](O)CC[C@H]2CCCO)c(O)c1 [CP55,940, (−)-cis-3-[2-hydroxy-4(1,1-dimethyl-heptyl)phenyl]-trans-4-(3-hydroxy-propyl)cyclohexanol]
[12]
  Emax: 74.4%

## CCS(=O)(=O)NCCCCC(C)(C)c1cc(O)c2c(c1)OC(C)(C)C1CC=C(C)CC21 (centres unmarked) [O-2113]
Cannabinoid CB1 receptor [1]
  Ki: 1.7 ± 0.3 nM
[2]
  better affinity for cannabinoid CB2 receptors than for CB1: 21 fold
  Ki: 0.08 ± 0.02 nM
ICR mice [3]
  ED50 RT (rectal temperature): 1.4 (0.3-4.6) mg/kg
ICR mice [4]
  ED50 TF (tail flick antinociception): 0.3 (0.1-1) mg/kg
ICR mice [6]
  ED50 SA (suppression of spontaneous activity): 0.4 (0.1-1.8) mg/kg
